Source: PMC8838850, “Synthesis, Antimicrobial, Anti-Virulence and Anticancer Evaluation of New 5(4H)-Oxazolone-Based Sulfonamides” (Molecules, 2022)
≈ marks a conversion by molar mass, not a printed value.

Experiments:
S. aureus [1] = test: Quantification of staphyloxanthin pigment; assay type: cell-based, Staphylococcus aureus; conditions: sub-MIC
Description: Staphyloxanthin and intermediate carotenoids were extracted from S. aureus treated or untreated with compounds 5, 7 and 10 at sub-MIC as described. Bacterial cells were cultivated in TSB at 37 °C for 24 h, then cells were collected by centrifugation, and washed twice with phosphate-buffered saline (PBS). The obtained pellets were used to extract staphyloxanthin with methanol. The pellets (5 gm of) were resuspended in 20 mL methanol, and heated with gentle stirring at 55 °C in a water bath for 5 min. Then, the methanol extract liquids were cooled and centrifuged, and the absorbances of the produced staphyloxanthin were quantified spectrophotometrically at 450 nm (Biotek, Winooski, VT, USA). The experiment was repeated in triplicate, and the pigment absorbances in the presence of tested compounds were expressed as mean ± standard error of percentage change from untreated controls. The percentages of pigment production were calculated using the formula: (absorbance of control − absorbance in presence of tested compounds)/absorbance of control.

[2] = system: Staphylococcus aureus ATCC 6538; test: MIC by agar dilution; assay type: cell-based; conditions: ATCC6538, 37 °C, 20 h, read-out: Minimum inhibitory concentration (MIC)
Description: (§1) The MICs of the synthesized compound were determined by agar dilution method according to the Clinical Laboratory and Standards Institute Guidelines (CLSI, 2015). Briefly, the tested strains were incubated overnight in tryptic soy broth (TSB) (Oxoid, United Kingdom) and then diluted in Muller–Hinton (MH) broth (Oxoid, United Kingdom) to turbidity approximating to the equivalent of 0.5 McFarland standard. The suspensions were further diluted with sterile saline (1:10) and standardized inoculums (approximately 10^4 CFU per spot) were spotted on the surfaces of MH agar (Oxoid, United Kingdom) plates containing different concentrations of tested compounds and a control plate. The MICs were the lowest concentrations that inhibit growth on the plates after incubation at 37 °C for 20 h.

[3] = system: Klebsiella pneumoniae ATCC 27736; test: MIC by agar dilution; assay type: cell-based; conditions: ATCC27736, 37 °C, 20 h, read-out: Minimum inhibitory concentration (MIC)
Description: as §1

[4] = system: Escherichia coli ATCC 10536; test: MIC by agar dilution; assay type: cell-based; conditions: ATCC10536, 37 °C, 20 h, read-out: Minimum inhibitory concentration (MIC)
Description: as §1

[5] = system: Salmonella typhimurium ATCC 14028; test: MIC by agar dilution; assay type: cell-based; conditions: Salmonella enterica, 37 °C, 20 h, read-out: Minimum inhibitory concentration (MIC)
Description: as §1

[6] = system: Micrococcus spp. ATCC 10240; test: MIC by agar dilution; assay type: cell-based; conditions: ATCC10240, 37 °C, 20 h, read-out: Minimum inhibitory concentration (MIC)
Description: as §1

[7] = system: Staphylococcus epidermidis ATCC 12228; test: MIC by agar dilution; assay type: cell-based; conditions: ATCC12228, 37 °C, 20 h, read-out: Minimum inhibitory concentration (MIC)
Description: as §1

Panc-1 = test: Caspase-Glo 3/7 apoptosis assay; assay type: cell-based, human; conditions: ½ IC50, IC50 or 2 ×IC50 for 6 h, vs untreated controls
Description: Caspases play critical roles in apoptosis. The apoptotic effects of selected compounds 5, 7 and 10 on pancreatic cell line Panc-1 were tested by quantification of caspase 3/7 using Caspase-Glo 3/7 assay kit (Promega, Fitchburg, MA, USA) as previously described. Briefly, cells were treated with or without compounds 5, 7 and 10 (½ IC50, IC50, or 2 ×IC50) for 6 h. The prepared reagent Caspase-Glo 3/7 was added in equal volumes to cells, gently mixed, and incubated for 60 min at room temperature. The luminescence was measured, and the activity of caspase was presented as a percentage change from the untreated control.

[8] = system: Candida albicans ATCC 10231; test: MIC by agar dilution (antifungal); assay type: cell-based; conditions: Candida albicans, ATCC10231, Candida albicans ATCC 10231, read-out: Minimum inhibitory concentration (MIC)
Description: as §1

[9] = system: Aspergillus niger ATCC 16404; test: MIC by agar dilution (antifungal); assay type: cell-based; conditions: ATCC16404, read-out: Minimum inhibitory concentration (MIC)
Description: as §1

P. aeruginosa = test: Quantification of pyocyanin pigment; assay type: cell-based, Pseudomonas aeruginosa; conditions: sub-MIC
Description: The ability of selected compounds 5, 7 and 10 at sub-MIC to reduce the P. aeruginosa pyocyanin pigment production was estimated as described earlier. P. aeruginosa overnight cultures were prepared and diluted in LB broth at 600 nm (O.D0.4), and 10 μL of the bacterial suspensions were added to 1mL broth tubes containing, or not, tested drugs at sub-MIC. After incubation for 48 h at 37 °C, the tubes were centrifuged and the pyocyanin in the supernatant was assayed spectrophotometrically at 691 nm by a Biotek spectrofluorometer (Biotek, Winooski, VT, USA). The experiment was repeated in triplicate, and the pyocyanin absorbances in the presence of tested compounds were expressed as mean ± standard error of percentage change from untreated controls. The percentages of pigment production were calculated using the formula: (absorbance of control − absorbance in presence of tested compounds)/absorbance of control.

S. aureus [10] = test: Assay of protease production (casein substrate); assay type: cell-based, Staphylococcus aureus; conditions: sub-MIC
Description: The effect of compounds 5, 7 and 10 on the production of protease was evaluated using casein substrate as described earlier. Briefly, overnight cultures of P. aeruginosa and S. aureus were cultivated in LB broth in the presence or absence of compounds 5, 7 and 10 at ½ MIC for 24 h at 37 °C. The supernatants were collected, mixed (1:1) with 0.05 M casein in phosphate buffer (2%) and NaOH (0.1 M) at pH 7.0, and incubated for 15 min at 37 °C. The reaction was stopped by adding 2 mL of 0.4 M trichloroacetic acid for 30 min at 25 °C. Any precipitates were removed, and the optical densities were detected at 660 nm. The assays were performed in triplicate and the obtained optical densities of tested strains treated with compounds 5, 7 and 10 were expressed as mean ± standard error of percentage change from untreated tested strains control (positive control) and LB (negative control). The protease inhibition percentages were calculated: (O.D control—O.D tested compounds)/O.D control.

**Q.** For `Cc1ccc(S(=O)(=O)Nc2ccccc2C2=N/C(=C/c3ccccc3)C(=O)O2)cc1` [Compound 9a, (E)-N-(2-(4-Benzylidene-5-oxo-4,5-dihydrooxazol-2-yl)phenyl)-4-methylbenzenesulfonamide], which melting point is on record?
**A.** The melting point was 214 to 216 °C.

**Q.** What about the “Production of pigment staphyloxanthin” value (S. aureus [1]) of the same compound?
**A.** Its value is “significantly decreased the production”.

**Q.** And the MIC [2]?
**A.** The MIC was 4 µg/mL (≈ 9.56 µM).

**Q.** What about the MIC [3] of the same compound?
**A.** The MIC was 4 µg/mL (≈ 9.56 µM).

**Q.** What about the MIC [4] of the same compound?
**A.** The MIC was 2 µg/mL (≈ 4.78 µM).

**Q.** What about the MIC [5] of the same compound?
**A.** Its MIC is 4 µg/mL (≈ 9.56 µM).

**Q.** What about the MIC [6] of the same compound?
**A.** Its MIC is 4 µg/mL (≈ 9.56 µM).

**Q.** What about the MIC [7] of the same compound?
**A.** Its MIC is 4 µg/mL (≈ 9.56 µM).

**Q.** What about the “Apoptotic effect, caspase 3/7 levels” value (Panc-1) of the same compound?
**A.** Its value is “triggered apoptosis through increasing the amounts of activated caspases 3/7”.

**Q.** What about the MIC [8] of the same compound?
**A.** Its MIC is 16 µg/mL (≈ 38.2 µM).

**Q.** And the MIC [9]?
**A.** The MIC was 32 µg/mL (≈ 76.5 µM).

**Q.** And the “Production of pigment pyocyanin” value (P. aeruginosa)?
**A.** The value was “significantly decreased the production”.

**Q.** And the Production of protease (S. aureus [10])?
**A.** The Production of protease was “significantly reduced the production of protease”.

**Q.** With `COc1ccc(/C=C2/N=C(c3ccccc3NS(=O)(=O)c3ccc(C)cc3)OC2=O)cc1` [Compound 9b, (E)-N-(2-(4-(4-Methoxybenzylidene)-5-oxo-4,5-dihydrooxazol-2-yl)phenyl)-4-methylbenzenesulfonamide] as the compound, how does the “Production of pigment staphyloxanthin” value (S. aureus [1]) read?
**A.** Its value is “significantly decreased the production”.

**Q.** And the MIC [2]?
**A.** Its MIC is 2 µg/mL (≈ 4.46 µM).

**Q.** What about the MIC [3] of the same compound?
**A.** Its MIC is 4 µg/mL (≈ 8.92 µM).

**Q.** And the MIC [4]?
**A.** The MIC was 2 µg/mL (≈ 4.46 µM).

**Q.** What about the MIC [5] of the same compound?
**A.** The MIC was 4 µg/mL (≈ 8.92 µM).

**Q.** What about the MIC [6] of the same compound?
**A.** The MIC was 1 µg/mL (≈ 2.23 µM).

**Q.** What about the MIC [7] of the same compound?
**A.** The MIC was 1 µg/mL (≈ 2.23 µM).

**Q.** What about the “Apoptotic effect, caspase 3/7 levels” value (Panc-1) of the same compound?
**A.** The value was “triggered apoptosis through increasing the amounts of activated caspases 3/7”.

**Q.** What about the MIC [8] of the same compound?
**A.** Its MIC is over 32 µg/mL.

**Q.** What about the MIC [9] of the same compound?
**A.** Its MIC is over 32 µg/mL.

**Q.** What about the “Production of pigment pyocyanin” value (P. aeruginosa) of the same compound?
**A.** The value was “significantly decreased the production”.

**Q.** What about the Production of protease (S. aureus [10]) of the same compound?
**A.** Its Production of protease is “significantly reduced the production of protease”.

**Q.** Which melting point does the source give for `Cc1ccc(S(=O)(=O)Nc2ccccc2C2=N/C(=C/c3ccc([N+](=O)[O-])cc3)C(=O)O2)cc1` [Compound 9f, (E)-4-Methyl-N-(2-(4-(4-nitrobenzylidene)-5-oxo-4,5-dihydrooxazol-2-yl)phenyl)benzenesulfonamide] here?
**A.** The melting point was 250 to 252 °C.

**Q.** What about the “Production of pigment staphyloxanthin” value (S. aureus [1]) of the same compound?
**A.** The value was “significantly decreased the production”.

**Q.** And the MIC [2]?
**A.** The MIC was 2 µg/mL (≈ 4.32 µM).

**Q.** And the MIC [3]?
**A.** Its MIC is 2 µg/mL (≈ 4.32 µM).

**Q.** What about the MIC [4] of the same compound?
**A.** Its MIC is 4 µg/mL (≈ 8.63 µM).

**Q.** And the MIC [5]?
**A.** Its MIC is 2 µg/mL (≈ 4.32 µM).

**Q.** And the MIC [6]?
**A.** Its MIC is 2 µg/mL (≈ 4.32 µM).

**Q.** And the MIC [7]?
**A.** The MIC was 2 µg/mL (≈ 4.32 µM).

**Q.** What about the “Apoptotic effect, caspase 3/7 levels” value (Panc-1) of the same compound?
**A.** The value was “triggered apoptosis through increasing the amounts of activated caspases 3/7”.

**Q.** What about the MIC [8] of the same compound?
**A.** Its MIC is over 32 µg/mL.

**Q.** And the MIC [9]?
**A.** The MIC was over 32 µg/mL.

**Q.** What about the “Production of pigment pyocyanin” value (P. aeruginosa) of the same compound?
**A.** Its value is “significantly decreased the production”.

**Q.** What about the Production of protease (S. aureus [10]) of the same compound?
**A.** Its Production of protease is “significantly reduced the production of protease”.
